# From patent US20170298051A1, “ACTIVATOR OF ADIPONECTIN RECEPTOR” (THE UNIVERSITY OF TOKYO, priority 2013, published 2017)
# Key:
# Human AdipoR2 = molecular target: T1, Human AdipoR2 (Homo sapiens, UniProt Q86V24); assay: Surface plasmon resonance, affinity for AdipoR2; type: binding; settings: SPR
# T1 construct: made in house
# T1 sequence (Q86V24 1-386): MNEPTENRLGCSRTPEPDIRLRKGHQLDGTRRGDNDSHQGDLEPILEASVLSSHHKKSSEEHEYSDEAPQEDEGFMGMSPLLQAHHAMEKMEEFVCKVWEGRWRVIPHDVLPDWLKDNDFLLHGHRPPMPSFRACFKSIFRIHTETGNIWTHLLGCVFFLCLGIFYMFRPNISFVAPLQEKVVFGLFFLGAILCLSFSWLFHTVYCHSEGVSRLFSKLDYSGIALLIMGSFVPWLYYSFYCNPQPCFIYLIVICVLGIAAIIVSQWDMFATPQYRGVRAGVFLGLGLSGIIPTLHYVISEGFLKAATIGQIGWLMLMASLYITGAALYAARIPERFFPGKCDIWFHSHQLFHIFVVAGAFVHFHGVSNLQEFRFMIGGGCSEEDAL
# Protocol: Surface plasmon resonance measurements were performed by a BIAcore X100 system (GE Healthcare) and sensor chip SA (GE Healthcare). Human AdipoR1 and AdipoR2 were expressed with the baculovirus system, and purified to homogeneity. The AdipoR1 and AdipoR2 samples were then reconstituted into egg-phosphatidylcholine liposomes containing biotinyl phosphatidylethanolamine (Avanti), as previously reported^a. Mouse full-length adiponectin was generated as previously described^b,c,d,e. AdipoR1 and AdipoR2 were immobilized onto a sensor chip SA to levels of 2,500-3,000 response units (RU) using standard immobilization protocols (GE Healthcare).
# Experiments were performed at 25° C. using AdipoRon (0.49-31.25 μM) and adiponectin (1.5 ng-3.75 μg) and using electrophoresis buffer (20 mM Hepes (pH 7.4), 200 mM NaCl, 10% glycerol, […] surfactant P20). Biacore X100 Evaluation Software was used to determine the equilibrium dissociation constant (KD) of the compound or proteins.
# mice fed a HF diet = assay: Effects on lipid metabolism: plasma triglycerides and free fatty acid in mice fed a HF diet; type: in vivo
# Protocol: Mice were 6-10 week of age at the time of the experiment. They were housed in cages and maintained on a 12 hr light-dark cycle.
# Plasma glucose levels were determined by using a glucose B-test (Wako Pure Chemical Industries). Plasma insulin was measured with an insulin immunoassay (Shibayagi). Plasma NEFAs (Wako Pure Chemical Industries) were assayed by enzymatic methods.
# mice fed with a HF diet = assay: Treadmill exercise endurance in mice fed a HF diet; type: in vivo
# Protocol: The treadmill exercise test regimen was 15 m/min for 20 min. Exercise endurance was assessed by dividing 20 min by the number of times a mouse was unable to avoid electrical shocks.
# db/db mice [1] = assay: TG content, oxidative stress and inflammation in insulin target tissues in db/db mice; type: in vivo
# Protocol: Mitochondrial content assays were carried out as described previously^a,b, with slight modifications. For quantification of mitochondrial content, we used mtDNAas previously described^c.
# Real-time PCR was carried out according to the method described previously^a,b,c. Total RNA was prepared from cells or tissues with Trizol (Invitrogen) according to the manufacturer's instructions. We used a real-time PCR method to quantify the mRNAs^19, with slight modifications.
# Skeletal muscle homogenates were extracted, and tissue triglyceride content was determined as described previously^a-c, with some modifications. To investigate whether oxidative stress was increased, we measured lipid peroxidation, a marker of oxidative injury, as represented by plasma thiobarbituric acid reactive substance (TBARS) as described previously^4. Briefly, tissue samples were homogenized in a buffer solution containing 50 mM Tris-HCl (pH 7.4) and 1.15% KCl, and then centrifuged. The supernatant was used for the assay. The levels of lipid peroxidation in tissue homogenate and plasma were measured in terms of the amount of TBARS using the LPO test (Wako Pure Chemical Industries).
# db/db mice [2] = assay: Lifespan of db/db mice on a HF diet; type: in vivo; settings: daily dose of 30 mg kg−1 body weight
# Protocol: Because the HF diet has been reported to shorten the lifespan, we examined whether orally administered AdipoRon could prolong the shortened lifespan due to a HF diet or not.
# That is, the db/db mice were randomly divided into 3 groups: a normal chow group (Normal chow, n=20), high-fat group (High-fat, n=20) and high-fat and additionally AdipoRon group (High-fat+AdipoRon, n=20), which were treated with AdipoRon at a daily dose of 30 mg kg^−1 body weight. The survival rate was recorded daily.
# [3] = WT mice fed a HF diet, oral 50 mg/kg, 10 days
structure (smiles),measurement,setting,value
"O=C(COc1ccc(C(=O)c2ccccc2)cc1)NC1CCN(Cc2ccccc2)CC1 [Compound 73, 2-(4-benzoyl-phenoxy)-N-(1-benzylpiperidin-4-yl)acetamide]",Rmax,Human AdipoR2,8.6 RU
same,Kd,"Human AdipoR2; 25° C., read-out: equilibrium dissociation constant (KD)",3.1 µM
same,reduction of plasma TG and FFA,mice fed a HF diet; Adipor1/r2 double-knockout mice,not observed
same,plasma concentration of free fatty acid (FFA),mice fed a HF diet; [3],reduced
same,plasma concentration of triglycerides (TG),mice fed a HF diet; [3],reduced
same,exercise endurance,mice fed with a HF diet; Adipor1/r2 double-knockout mice fed with a HF diet,but not in Adipor1/r2 double-knockout mice
same,exercise endurance,mice fed with a HF diet; WT mice fed with a HF diet,significantly increased exercise endurance
same,TG content in the liver,db/db mice [1],significantly reduced TG content
same,expression levels of genes encoding pro-inflammatory cytokines in the liver,db/db mice [1],reduced expression levels
same,"expression levels of genes encoding pro-inflammatory cytokines, macrophage markers, M1 macrophage markers in the WAT",db/db mice [1],reduced the expression levels
same,expression of Pparα and its target genes in the liver,db/db mice [1],increased the expression
same,"expressions of Ppargc1a, Pck1 and G6pc in the liver",db/db mice [1],significantly decreased expressions
same,oxidative stress in the liver,db/db mice [1],significantly reduced
same,TG content and TBARS in skeletal muscles,db/db mice [1]; oral,decreased TG content and TBARS
same,levels of Acadm and Sod2 in skeletal muscles,db/db mice [1]; oral,significantly increased
same,levels of genes involved in mitochondrial biogenesis functions and DNA content in skeletal muscles,db/db mice [1]; oral,significantly increased
same,lifespan,db/db mice [2],significantly rescued the shortened lifespan
